According to patent publication US20170298402A1, “SELF-LABELING NUCLEIC ACIDS AND METHODS OF USE” (President and Fellows of Harvard College, priority 2014, published 2017):

System: post-round 6 RNA pool
Experiment: Streptavidin gel mobility shift of post-round 6 RNA pool with each electrophilic probe
Assay type: biochemical
Conditions: streptavidin incubation and gel mobility shift
Method: The reaction between small-molecule probe(s) and the RNA pool was performed as follows: the RNA pool (1 μM) in buffer containing 150 mM NaCl, 25 mM Na-HEPES, pH 7.4, was heated at 65° C. for 5 minutes, then allowed to cool for an additional 5 minutes. MgCl2 (10 mM) was then added for a total volume of 45 μL and the solution incubated for 10 minutes, followed by addition of 1.3 mM of the biotinylated small-molecule probe in DMSO. After incubation for the desired time, the RNA was precipitated by the addition of 5 μL of 3 M NaOAc and 180 μL of EtOH.
The pellet resulting from EtOH precipitation of a reaction of RNA (750 ng) with a small-molecule probe was resuspended in 21 μL H2O. The RNA (7 μL) and streptavidin (NEB; 1 μg) were incubated at room temperature for 25 minutes and then combined with gel electrophoresis loading buffer. The sample was electrophoresed on a 10% PAGE denaturing gel (240 V, 35 minutes) and visualized following incubation with SYBR Green II (Life Technologies).
To identify the electrophile(s) that reacted with the enriched RNA, we performed one additional round of in vitro selection and then incubated the resulting post-round 6 RNA pool with each of the eight electrophilic probes.

SMILES: CC1O[C@H]1CCCOCCOC(=O)CCCCC1SCC2NC(=O)NC21 (stereo partly shown) [probe 1]
- reaction with the post-round 6 RNA pool: reacted
